Values of other authors in patent US11103501B2, “Dry powder formulation of azole derivative for inhalation” (priority 2011, dated 2021).

water solubility: < 1 µg/mL
solubility (pII 7): < 1 µg/mL
SMILES: CCC(C)n1ncn(-c2ccc(N3CCN(c4ccc(OCC5COC(Cn6cncn6)(c6ccc(Cl)cc6Cl)O5)cc4)CC3)cc2)c1=O (centres unmarked) [itraconazole]
